Patent publication US10189809B2, “SGC stimulators” (Ironwood Pharmaceuticals, Inc., priority 2010, dated 2019)
Where two headings read alike, the source gives them in different places.

Target: soluble guanylate cyclase (sGC) (Homo sapiens (Human), UniProt Q02108+Q02153)
Experiment: sGC-HEK-cGMP assay run with SNP incubation (HEK WC assay)
Format: cell-based
Details: for EC50: in the presence of 10 uM SNP
Description: Human embryonic kidney cells (HEK293), endogenously expressing soluble guanylate cyclase (sGC), were used to evaluate the activity of test compounds. Compounds stimulating the sGC receptor should cause an increase in the intracellular concentration of cGMP. HEK 293 cells were seeded in Dulbecco's Modification of Eagle's Medium supplemented with fetal bovine serum (10% final) and L-glutamine (2 mM final) in a 200 μL volume at a density of 1×10^5 cells/well in a poly-D-lysine coated 96 well flat bottom plate and grown overnight at 37° C. Medium was aspirated and cells were washed with 1× Hank's Buffered Saline Salt Solution (200 μL). Cells were then incubated for 15 minutes at 37° C. with 0.5 mM 3-isobutyl-1-methylxanthine (200 μL). Test article and sodium nitroprusside were then added to the assay mixture (2 μL each) and incubated at 37° C. for 10 minutes. After the 10 minute incubation, the assay mixture was aspirated and 0.1M HCl (200 μL) was added to the cells. The plate was incubated at 4° C. for 30 minutes in the 0.1M HCl to stop the reaction and lysed the cells. The plates were then centrifuged at 1,200 g for 5 minutes at room temperature. Supernatants were collected and transferred to a new flat bottom 96 well plate for analysis. Vehicle controls were carried out using DMSO (1%). […] Samples were diluted with an equal volume of 1 M Ammonium Acetate (pH 7) to neutralize samples for better chromatography. […] EC50 values were calculated from concentration-response curves generated with GraphPad Prism Software.

[1] = read-out: HEK WC Assay (% Emax at 10 μM with 10 uM SNP)
[2] = read-out: HEK WC Assay (% Emax at 30 μM with 10 uM SNP)
[3] = read-out: HEK WC Assay (% Emax at 1 μM with 10 uM SNP)

Chain of soluble guanylate cyclase (sGC) (Q02153 whole entry): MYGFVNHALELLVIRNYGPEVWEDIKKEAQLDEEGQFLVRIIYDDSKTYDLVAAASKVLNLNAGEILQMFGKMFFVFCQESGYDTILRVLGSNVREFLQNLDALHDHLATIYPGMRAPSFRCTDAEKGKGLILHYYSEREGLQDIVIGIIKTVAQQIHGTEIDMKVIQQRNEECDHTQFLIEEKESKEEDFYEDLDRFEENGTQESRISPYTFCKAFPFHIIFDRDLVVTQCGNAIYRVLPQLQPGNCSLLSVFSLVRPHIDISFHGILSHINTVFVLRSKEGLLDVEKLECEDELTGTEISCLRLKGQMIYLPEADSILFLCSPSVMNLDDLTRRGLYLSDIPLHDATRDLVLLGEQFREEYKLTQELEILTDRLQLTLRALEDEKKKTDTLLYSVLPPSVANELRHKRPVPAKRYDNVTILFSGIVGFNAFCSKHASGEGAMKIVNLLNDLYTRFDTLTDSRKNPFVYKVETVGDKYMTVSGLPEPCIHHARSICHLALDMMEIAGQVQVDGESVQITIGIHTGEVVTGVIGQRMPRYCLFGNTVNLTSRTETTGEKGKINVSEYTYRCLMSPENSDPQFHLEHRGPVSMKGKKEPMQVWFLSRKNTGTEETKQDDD
Chain of soluble guanylate cyclase (sGC) (Q02108 whole entry): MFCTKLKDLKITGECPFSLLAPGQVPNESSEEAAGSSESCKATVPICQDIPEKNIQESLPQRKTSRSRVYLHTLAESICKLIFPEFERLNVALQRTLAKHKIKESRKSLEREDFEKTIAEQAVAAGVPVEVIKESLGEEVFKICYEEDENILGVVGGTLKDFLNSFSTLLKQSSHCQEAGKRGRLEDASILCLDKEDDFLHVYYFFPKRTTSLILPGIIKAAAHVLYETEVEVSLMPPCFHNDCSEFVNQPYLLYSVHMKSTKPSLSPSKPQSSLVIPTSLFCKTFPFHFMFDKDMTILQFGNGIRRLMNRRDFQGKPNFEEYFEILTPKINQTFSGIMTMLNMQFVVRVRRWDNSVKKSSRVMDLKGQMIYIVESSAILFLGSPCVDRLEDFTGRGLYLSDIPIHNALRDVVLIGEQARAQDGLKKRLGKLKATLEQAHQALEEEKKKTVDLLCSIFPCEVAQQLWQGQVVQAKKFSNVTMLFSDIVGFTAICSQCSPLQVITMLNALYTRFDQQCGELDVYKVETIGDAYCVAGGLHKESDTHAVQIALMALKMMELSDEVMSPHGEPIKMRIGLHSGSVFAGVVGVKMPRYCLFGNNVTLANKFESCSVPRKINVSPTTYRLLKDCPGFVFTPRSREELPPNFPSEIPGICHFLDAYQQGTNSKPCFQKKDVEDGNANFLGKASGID

Structure (SMILES) | Emax at 10 µM (read-out: HEK WC Assay (% Emax at 10 μM/with 10 uM SNP)) | Emax at 30 µM (read-out: HEK WC Assay (% Emax at 30 μM/with 10 uM SNP)) | Emax [1] | Emax [2] | EC50 | Emax [3]
CS(=O)(=O)c1ccc(-c2cc(-c3ccccn3)nn2Cc2ccccc2F)nc1 [Compound I-73] | 0 to 10% | 0 to 10% |  |  |  | 
CS(=O)(=O)Nc1cnc(-c2cc(-c3ccon3)n(Cc3ccccc3F)n2)nc1N [Compound I-145] |  |  | 20 to 40% | 20 to 40% |  | 
CC(C)(O)c1cnc(-c2cc(-c3ncco3)n(Cc3ccccc3F)n2)nc1N [Compound I-146] |  |  | 40 to 60% | 40 to 60% |  | 
N#Cc1cnc(-c2cc(-c3ncco3)n(Cc3ccccc3F)n2)nc1O [Compound I-155] |  |  | 40 to 60% | 60 to 80% | < 20 µM | 
Nc1nc(-c2cc(-c3ccon3)n(Cc3ccccc3F)n2)ncc1NC(=O)C1CCCCC1 [Compound I-157] |  |  | 100 to 120% | 80 to 100% |  | 
CC(C)(Oc1ccccc1)C(=O)Nc1cnc(-c2cc(-c3ccon3)n(Cc3ccccc3F)n2)nc1N [Compound I-230] |  |  | 20 to 40% | 20 to 40% | 60 to 100 µM | 10 to 20%
O=S(=O)(c1cc(Cl)ccc1Cl)c1cnc(-c2cc(-c3ccon3)n(Cc3ccccc3F)n2)nc1O [Compound I-242] |  |  | 20 to 40% | 20 to 40% | 60 to 100 µM | 10 to 20%
C=CC(C)(C)C(=O)Nc1cnc(-c2cc(-c3ccon3)n(Cc3ccccc3F)n2)nc1N [Compound I-246] |  |  | 100 to 120% | 100 to 120% | < 20 µM | 60 to 80%
CCC(C)(C)C(=O)Nc1cnc(-c2cc(-c3ccon3)n(Cc3ccccc3F)n2)nc1N [Compound I-247] |  |  | 60 to 80% | 80 to 100% | < 20 µM | 20 to 40%
O=c1cc(O)oc2nc(-c3cc(-c4ccon4)n(Cc4ccccc4F)n3)nc(O)c12 [Compound I-248] |  |  | 0 to 10% | 0 to 10% | 600 to 900 µM | 0 to 10%
CN(C)/C=N/c1cnc(-c2cc(-c3ccon3)n(Cc3ccccc3F)n2)nc1 [Compound I-249, N′-(2-(1-(2-fluorobenzyl)-5-(isoxazol-3-yl)-1H-pyrazol-3-yl)pyrimidin-5-yl)-N,N-dimethylformimidamide] |  |  | 40 to 60% | 60 to 80% | < 20 µM | 20 to 40%
CC(C)(C)[S+]([O-])Nc1cnc(-c2cc(-c3ccon3)n(Cc3ccccc3F)n2)nc1N[S+]([O-])C(C)(C)C (centres unmarked) [Compound I-250] |  |  | 10 to 20% | 10 to 20% | 100 to 300 µM | 0 to 10%
CC(C)(C)S(=O)(=O)Nc1cnc(-c2cc(-c3ccon3)n(Cc3ccccc3F)n2)nc1N [Compound I-251] |  |  | 20 to 40% | 20 to 40% | 20 to 40 µM | 10 to 20%
CCCC(F)(F)C(=O)Nc1cnc(-c2cc(-c3ccon3)n(Cc3ccccc3F)n2)nc1N [Compound I-252] |  |  | 40 to 60% | 60 to 80% | < 20 µM | 40 to 60%
C=C(C)C(=O)Nc1cnc(-c2cc(-c3ccon3)n(Cc3ccccc3F)n2)nc1N [Compound I-258] |  |  | 60 to 80% | 60 to 80% | < 20 µM | 40 to 60%
Nc1nc(-c2cc(-c3ccon3)n(Cc3ccccc3F)n2)ncc1N1Cc2ccccc2C1=O [Compound I-259] |  |  | 60 to 80% | 60 to 80% | < 20 µM | 20 to 40%
CC1(C(=O)Nc2cnc(-c3cc(-c4ccon4)n(Cc4ccccc4F)n3)nc2N)CC1(Cl)Cl (centres unmarked) [Compound I-260] |  |  | 100 to 120% | 80 to 100% | < 20 µM | 80 to 100%
Oc1cc(O)nc(-c2cc(-c3ccon3)n(Cc3ccccc3F)n2)n1 [Compound I-261] |  |  | 0 to 10% | 0 to 10% | 300 to 600 µM | 0 to 10%
Nc1cnc(-c2cc(-c3ccon3)n(Cc3ccccc3F)n2)nc1 [Compound I-262] |  |  | 60 to 80% | 60 to 80% | < 20 µM | 20 to 40%
[2H]C([2H])([2H])C(=O)Nc1cnc(-c2cc(-c3ccon3)n(Cc3ccccc3F)n2)nc1N [Compound I-263] |  |  | 100 to 120% | 100 to 120% | < 20 µM | 40 to 60%
